In patent US10226509B2, “Lymphangiogenesis inhibitors for cancer and for graft survival” (TUFTS UNIVERSITY, priority 2014, dated 2019):
Where two headings read alike, the source gives them in different places.

What was measured:
[1] = tested on: VEGF-C-induced LEC sprouting; assay: LEC sprouting assay: VEGF-C-induced sprouting; type: cell-based, human; conditions: VEGF-C 50 ng/ml, 24 h
Description: (§1) LEC spheroids were generated by seeding primary LECs at passage 4 or 5 in each well of 384-well hanging-drop plates (3D Biomatrix) in complete EGM-2 MV medium containing 0.25% methyl cellulose according to the manufacturer's instructions (750 cells/well). After 18 hours, LEC spheroids were collected, resuspended in serum-free EBM-2 basal medium, and mixed with collagen solution (PureCol collagen, Advanced BioMatrix, 2.2 mg/ml in M199 medium, pH adjusted to 7.4 with NaHCO3 and NaOH). Aliquots of the LEC spheroid/collagen mixture (250 μl/well of 48-well plate) were incubated in the presence or absence of various test agents for 24 hr. At the end of the incubation period, spheroids were stained with Calcein AM (Invitrogen, 1 μg/mL, 37° C., and 30 min). Fluorescent images were acquired using the EVOS FL cell imaging system, pixels were inverted for better visualization and cumulative length of each sprout was calculated. Results were expressed as fold change compared to corresponding controls. It was observed that sprout lengths vary from passages to passages. Test agents used included thiodigalactoside (10 to 50 mM, Carbosynth), 3′-sialyl lactose (2 to 10 mM, Carbosynth), 6′-sialyl lactose (2 to 10 mM, Carbosynth), LY294002 (20 μM, Abeam), U0126 (20 μM, Abeam), PD0325901 (1 μM, Selleckchem), human VEGFR-3-Fc chimera (10 μg/ml, R&D), human VEGFR-2-Fc chimera (10 μg/ml, R&D), Avastin (10 μg/ml, bevacizumab, Genentech/Roche), human control IgG (10 μg/ml, Southern Biotech), anti-human podoplanin functional grade antibody (10 μg/ml, eBioscience), and rat IgG2a κ isotype control functional grade antibody (10 μg/ml, eBioscience).
In this assay, the LEC spheroids were treated with VEGF-C (50 ng/ml) in the presence or absence of 0.75 μM of Gal-8 for 24 hours, and then accumulated sprout lengths were quantified. […] Synergistic effect of Gal-8 on VEGF-C-induced LEC sprouting was dose-dependent. […] At concentrations >0.5 μM Gal-8, there was no further increase in the degree of VEGF-C-induced lymphangiogenesis (FIG. 4C).
To further characterize the role of carbohydrate-mediated recognition in VEGF-C-induced lymphangiogenesis, LEC spheroids were stimulated with VEGF-C (50 ng/ml) in the presence or absence of three different galectin inhibitors. […] Therefore, the data establishes the critical role of Gal-8-mediated carbohydrate-mediated recognition in VEGF-C-induced lymphangiogenesis.

[2] = tested on: Gal-8-induced LEC sprouting; assay: LEC sprouting assay: Gal-8-induced sprouting with inhibitors or knockdown; type: cell-based, human
Description: as §1, with “It was observed that sprout lengths vary from passages to passages.” left out
To determine the role of these pathways on Gal-8-induced lymphangiogenesis, LEC spheroids were stimulated with Gal-8 (0.75 μM) in the presence or absence of PI3K inhibitor (LY294002, 20 μM) and two different MEK inhibitors (U0126, 20 μM; PD0325901, 1 μM). After overnight treatment with Gal-8, accumulated sprout lengths were quantified.

PDPN = biological target: T1, PDPN (Homo sapiens, UniProt Q86YL7); assay: Affinity precipitation assay, PDPN; type: binding; conditions: for binding of PDPN (in words): galectin-conjugated agarose beads, LEC lysates
T1 construct: Within the whole cell lysate, an anti-PDPN-reactive 43-kDa component was detected; host or cells: primary lymphatic endothelial cells (LECs)
T1 sequence (Q86YL7 23-162): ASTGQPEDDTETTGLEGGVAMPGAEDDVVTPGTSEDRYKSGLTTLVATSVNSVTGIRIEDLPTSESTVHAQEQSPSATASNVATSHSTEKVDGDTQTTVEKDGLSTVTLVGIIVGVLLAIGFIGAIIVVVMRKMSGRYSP
Description: (§2) Five mg of plant lectins (Vector Labs) and galectins were conjugated to 330 mg of Pierce® NHS-activated agarose dry resin in accordance with the manufacturer's instructions (Thermo Scientific). Primary LECs (Lonza) were lysed in Triton lysis buffer (20 mM Tris-HCl, pH 7.4; 150 mM NaCl; 0.5% Triton X-100 with protease inhibitor cocktail). LEC lysates (250 μg in 500 μL lysis buffer supplemented with 10 mM MgCl2) were incubated with 40 μL (50% slurry) of agarose-conjugated lectins (4° C., overnight). Beads were pelleted by centrifugation at 3000 rpm for 1 min. Non-specific binding proteins were removed by washing the beads with Triton lysis buffer once and PBS twice. Supernatants were discarded; bound proteins were eluted by boiling the beads with 20 μL of 2× Laemmli sample buffer for 7 min, and examined by western blotting.
To determine whether PDPN binds to Gal-8 in a carbohydrate-dependent manner, LEC lysates were incubated with Gal-8-conjugated to agarose beads in the presence or absence of 0.1 M of lactose (an inhibiting sugar) or sucrose (a non-inhibiting sugar). Bound proteins were examined with total cell lysates (input) by western blot using an anti-PDPN antibody. To determine specificity of PDPN binding to Gal-8, LEC lysates were also incubated with agarose beads conjugated to Gal-1, Gal-3 and Gal-7. Within the whole cell lysate, an anti-PDPN-reactive 43-kDa component was detected (FIG. 7A).

VEGFR-3 = assay: Affinity precipitation assay, VEGFR-3; type: binding, human; conditions: 0.1 M sugar
Description: as §2
Next, a series of examples were performed to determine whether VEGF-C-induced lymphangiogenesis is dependent on Gal-8. To determine whether VEGFR-3 is a Gal-8-binding protein, LEC lysates were incubated with Gal-8-conjugated agarose beads in the presence or absence of 0.1 M of lactose (an inhibiting sugar) or sucrose (a non-inhibiting sugar). Bound proteins were examined and were compared to total cell lysates (input) by western blot using anti-VEGFR-3 antibody. Three forms of VEGFR-3 (125 kDa, 175 kDa and 195 kDa) were detected in total cell lysates (FIG. 5A) (Bando, H., et al. 2004. Int J Cancer 111:184-191.). […] Having shown that Gal-8 binds to VEGFR-3 in LECs and that the carbohydrate-binding activity of Gal-8 is required for the synergistic effect of Gal-8 on VEGF-C-induced LEC sprouting, it was of interest to determine whether VEGFR-3 bears 3′-sialylated glycans.

LEC spheroids = assay: LEC sprouting assay: stimulation by galectins alone; type: cell-based, human; conditions: 24 hours
Description: as §1
To assess the effect of galectins on LEC sprouting, LEC spheroids were embedded in a collagen matrix and incubated with media containing various test agents. After 24 hours, the cumulative length of the sprouts for each spheroid was quantified by ImageJ. […] Multiple approaches were used to determine whether the stimulatory effect of Gal-8 on LEC sprouting was carbohydrate-dependent.

[3] = Gal-8 0.75 μM, 24 h, TDG 20 mM, LY294002 20 μM, U0126 20 μM, PD0325901 1 μM, Avastin 10 μg/ml, Obtustatin 4 μM, antibodies 20 μg/ml, siRNA-transfected LECs

For `CC(=O)N[C@H]1[C@H]([C@H](O)[C@H](O)CO)O[C@@](O[C@H]2[C@@H](O)[C@@H](CO)O[C@@H](O[C@H]3[C@H](O)[C@@H](O)C(O)O[C@@H]3CO)[C@@H]2O)(C(=O)O)C[C@@H]1O` (stereo partly drawn) [3′-SL, 3′-sialyllactose], the “effect on VEGF-C-induced LEC sprouting (in words)” value [1] was “inhibited”, the “inhibition of Gal-8-induced LEC sprouting” value ([2]; at 2 mM concentration) was 95% and the “nH of inhibition of galectin-8-mediated LEC sprouting” value ([2]; galectin-8 at 0.75 μM) was 3.38. It also gave an IC50 ([2]; galectin-8 at 0.75 μM, read-out: IC50 of the inhibitory effect on galectin-8-mediated LEC sprouting) of 1.25 mM and a Ki ([2]; galectin-8 at 0.75 μM, read-out: Ki (Ki=IC50/(1+[A]/EC50))) of 1.67 mM.

In the case of `CC(=O)N[C@H]1[C@H]([C@H](O)[C@H](O)CO)O[C@@](OC[C@H]2O[C@@H](O[C@H]3[C@H](O)[C@@H](O)[C@H](O)O[C@@H]3CO)[C@H](O)[C@@H](O)[C@H]2O)(C(=O)O)C[C@@H]1O` [6′-SL, 6′-sialyl lactose], the “effect on Gal-8-induced LEC sprouting (in words)” value [2, 3] is reported as “had no effect”.

In the case of `O=C(NOC[C@H](O)CO)c1ccc(F)c(F)c1Nc1ccc(I)cc1F` [PD0325901], the “effect on Gal-8-induced LEC sprouting (in words)” value [2, 3] is reported as “markedly inhibited”.

For `N#CC(=C(/N)Sc1ccccc1N)/C(C#N)=C(\N)Sc1ccccc1N` [U0126], the “effect on Gal-8-induced LEC sprouting (in words)” value [2] was “markedly inhibited”.

With `OC[C@H]1O[C@@H](O[C@H]2[C@H](O)[C@@H](O)C(O)O[C@@H]2CO)[C@H](O)[C@@H](O)[C@H]1O` (stereo partly drawn) [lactose, reference compound] the “inhibition of binding of PDPN to Gal-8” value (PDPN; 0.1 M sugar) was “inhibited” and the “inhibition of binding of VEGFR-3 to Gal-8” value (VEGFR-3) was “inhibited”.

For Gal-1: recombinant galectin-1, the “binding of PDPN (in words)” value (PDPN) was “does not bind”, the “effect on VEGF-C-induced LEC sprouting (in words)” value [1] was “did not potentiate” and the “promotion of LEC sprouting by the agent alone (in words)” value (from here on “promotion of LEC sprouting”) (LEC spheroids) was “not Gal-1, Gal-3 or Gal-7, promotes LEC sprouting”.

For Gal-3: recombinant galectin-3, the “binding of PDPN (in words)” value (PDPN) was “does not bind”, the “effect on VEGF-C-induced LEC sprouting (in words)” value [1] was “did not potentiate” and the “promotion of LEC sprouting” value (LEC spheroids) was “not Gal-1, Gal-3 or Gal-7, promotes LEC sprouting”.

Gal-7: recombinant galectin-7 was tested, and the “binding of PDPN (in words)” value (PDPN) was “does not bind”, the “effect on VEGF-C-induced LEC sprouting (in words)” value [1] was “did not potentiate” and the “promotion of LEC sprouting” value (LEC spheroids) was “not Gal-1, Gal-3 or Gal-7, promotes LEC sprouting”.

With “Gal-8Q47A: Gal-8 mutant which has lost its ability to bind to α2,3-sialylated glycans” the “promotion of LEC sprouting” value (LEC spheroids) was “not promote lymphangiogenesis”.

For “Obtustatin: a blocking peptide against integrin α1β1 (CTTGPCCRQCKLKPAGTTCWKTSLTSHYCTGKSCDCPLYPG) [reference compound]”, the “effect on VEGF-C-induced LEC sprouting (in words)” value [1] was “inhibited” and the “effect on Gal-8-induced LEC sprouting (in words)” value [2, 3] was “inhibited”.

B1: VEGFR-3-Fc: human VEGFR-3-Fc chimera (protein)
chain: YSMTPPTLNITEESHVIDTGDSLSISCRGQHPLEWAWPGAQEAPATGDKDSEDTGVVRDCEGTDARPYCKVLLLHEVHANDTGSYVCYYKYIKARIEGTTAASSYVFVRDFEQPFINKPDTLLVNRKDAMWVPCLVSIPGLNVTLRSQSSVLWPDGQEVVWDDRRGMLVSTPLLHDALYLQCETTWGDQDFLSNPFLVHITGNELYDIQLLPRKSLELLVGEKLVLNCTVWAEFNSGVTFDWDYPGKQAERGKWVPERRSQQTHTELSSILTIHNVSQHDLGSYVCKANNGIQRFRESTEVIVHENPFISVEWLKGPILEATAGDELVKLPVKLAAYPPPEFQWYKDGKALSGRHSPHALVLKEVTEASTGTYTLALWNSAAGLRRNISLELVVNVPPQIHEKEASSPSIYSRHSRQALTCTAYGVPLPLSIQWHWRPWTPCKMFAQRSLRRRQQQDLMPQCRDWRAVTTQDAVNPIESLDTWTEFVEGKNKTVSKLVIQNANVSAMYKCVVSNKVGQDERLIYFYVTTIPDGFTIESKPSEELLEGQPVLLSCQADSYKYEHLRWYRLNLSTLHDAHGNPLLLDCKNVHLFATPLAASLEEVAPGARHATLSLSIPRVAPEHEGHYVCEVQDRRSHDKHCHKKYLSVQALEAPRLTQNLTDLLVNVSDSLEMQCLVAGAHAPSIVWYKDERLLEEKSGVDLADSNQKLSIQRVREEDAGRYLCSVCNAKGCVNSSASVAVEGSEDKGSMEI
modifications: left off: a dimerising Fc or GST
notes: human VEGFR-3-Fc chimera
With B1 the “effect on VEGF-C-induced LEC sprouting (in words)” value [1] was “inhibited” and the “% inhibition of Gal-8-induced LEC sprouting” value ([2]; Gal-8 0.75 μM, 10 μg/ml, 24 hours) was 37%.
